# What was measured:
# [1] = biological target: Tyrosine-protein kinase BTK (Homo sapiens, UniProt Q06187); test: Inhibition of human recombinant BTK
# [2] = biological target: Tyrosine-protein kinase JAK2 (Homo sapiens, UniProt O60674); test: Inhibition of JAK2 (unknown origin)
# Chain of Tyrosine-protein kinase JAK2 (O60674 whole entry): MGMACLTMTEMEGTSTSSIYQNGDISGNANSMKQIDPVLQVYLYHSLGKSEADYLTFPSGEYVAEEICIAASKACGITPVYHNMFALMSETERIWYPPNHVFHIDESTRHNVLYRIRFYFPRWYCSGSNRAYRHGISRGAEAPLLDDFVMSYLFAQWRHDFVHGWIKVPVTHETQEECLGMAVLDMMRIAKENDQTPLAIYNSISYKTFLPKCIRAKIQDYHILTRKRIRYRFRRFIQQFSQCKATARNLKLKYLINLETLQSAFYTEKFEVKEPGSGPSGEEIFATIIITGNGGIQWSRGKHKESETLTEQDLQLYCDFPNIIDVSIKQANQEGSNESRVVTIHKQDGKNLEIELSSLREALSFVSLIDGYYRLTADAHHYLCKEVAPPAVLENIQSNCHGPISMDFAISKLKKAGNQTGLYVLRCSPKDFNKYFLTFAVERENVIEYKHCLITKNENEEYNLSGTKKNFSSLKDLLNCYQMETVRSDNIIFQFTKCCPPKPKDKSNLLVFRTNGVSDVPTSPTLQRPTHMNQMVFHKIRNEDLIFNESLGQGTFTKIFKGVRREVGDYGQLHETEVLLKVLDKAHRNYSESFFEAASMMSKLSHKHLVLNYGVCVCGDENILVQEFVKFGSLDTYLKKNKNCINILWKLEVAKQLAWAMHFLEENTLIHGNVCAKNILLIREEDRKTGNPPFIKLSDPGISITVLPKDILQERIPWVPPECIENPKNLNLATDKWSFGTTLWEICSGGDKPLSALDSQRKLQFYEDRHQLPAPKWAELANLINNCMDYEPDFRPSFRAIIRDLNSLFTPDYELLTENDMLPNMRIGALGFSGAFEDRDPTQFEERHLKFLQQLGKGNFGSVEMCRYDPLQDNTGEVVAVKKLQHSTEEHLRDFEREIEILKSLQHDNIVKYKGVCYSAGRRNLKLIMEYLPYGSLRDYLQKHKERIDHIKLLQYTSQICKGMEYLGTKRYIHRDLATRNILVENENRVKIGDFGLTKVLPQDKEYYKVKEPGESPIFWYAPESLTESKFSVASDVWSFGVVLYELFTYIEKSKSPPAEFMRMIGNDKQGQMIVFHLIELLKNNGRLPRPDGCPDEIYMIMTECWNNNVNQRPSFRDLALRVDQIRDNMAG
# Chain of Tyrosine-protein kinase BTK (Q06187 whole entry): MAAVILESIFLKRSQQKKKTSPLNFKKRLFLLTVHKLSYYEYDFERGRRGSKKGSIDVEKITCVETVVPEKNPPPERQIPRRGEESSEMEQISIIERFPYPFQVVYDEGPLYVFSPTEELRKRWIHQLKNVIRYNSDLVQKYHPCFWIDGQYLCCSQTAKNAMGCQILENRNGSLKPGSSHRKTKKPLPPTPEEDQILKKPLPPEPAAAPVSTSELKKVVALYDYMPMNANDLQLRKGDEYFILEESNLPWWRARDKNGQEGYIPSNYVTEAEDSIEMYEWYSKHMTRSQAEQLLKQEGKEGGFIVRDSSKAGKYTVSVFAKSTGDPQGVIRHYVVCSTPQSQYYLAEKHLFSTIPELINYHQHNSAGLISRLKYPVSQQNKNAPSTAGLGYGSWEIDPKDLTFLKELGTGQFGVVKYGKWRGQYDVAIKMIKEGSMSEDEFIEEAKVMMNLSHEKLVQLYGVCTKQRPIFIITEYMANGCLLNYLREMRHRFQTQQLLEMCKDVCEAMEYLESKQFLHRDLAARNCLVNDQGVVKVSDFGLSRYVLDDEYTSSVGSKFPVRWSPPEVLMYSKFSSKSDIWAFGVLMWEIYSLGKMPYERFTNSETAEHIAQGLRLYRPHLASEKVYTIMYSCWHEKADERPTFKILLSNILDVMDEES
SMILES,IC50 [1] [nM],IC50 [2] [nM]
CN1CCN(C(=O)c2ccc3c(c2)[nH]c2c(C(N)=O)ccc(-c4ccc(Oc5ccccc5)cc4)c23)CC1,127,–
Cc1c(N)cccc1-c1ccc(C(N)=O)c2[nH]c3cc(C(=O)N4CCN(C)CC4)ccc3c12,19,–
CN1CCN(C(=O)c2ccc3c(c2)[nH]c2c(C(N)=O)cc(-c4ccc(Cl)c(Cl)c4)cc23)CC1,812,6.2
CN1CCN(C(=O)c2ccc3c(c2)[nH]c2c(C(N)=O)ccc(-c4c(F)cccc4F)c23)CC1,12,–
NC(=O)c1cc(-c2ccc(Cl)c(Cl)c2)cc2c1[nH]c1ccc(C(=O)N3CCOCC3)cc12,461,–
CN1CCN(C(=O)c2ccc3c(c2)[nH]c2c(C(N)=O)ccc(-c4cccc(NC(=O)c5ccc(F)cc5)c4F)c23)CC1,9.4,–
CN1CCN(C(=O)c2ccc3[nH]c4c(C(N)=O)cc(-c5ccc(Cl)cc5)cc4c3c2)CC1,110,–
Cc1c(NC(=O)c2ccc(N(C)C)cc2)cccc1-c1ccc(C(N)=O)c2[nH]c3cc(C(=O)N4CCN(C)CC4)ccc3c12,3.5,–
Cc1c(Cl)cccc1-c1ccc(C(N)=O)c2[nH]c3cc(C(=O)N4CCN(C)CC4)ccc3c12,32,–
COc1cccc(-c2ccc(C(N)=O)c3[nH]c4cc(C(=O)N5CCN(C)CC5)ccc4c23)c1,32,–
CC(=O)Nc1ccc(-c2ccc(C(N)=O)c3[nH]c4ccc(C(=O)N5CCN(C)CC5)cc4c23)cc1,39,–
CC(=O)Nc1cccc(-c2ccc(C(N)=O)c3[nH]c4cc(C(=O)N5CCN(C)CC5)ccc4c23)c1,30,–
COc1cccc(-c2cc(C(N)=O)c3[nH]c4cc(C(=O)N5CCN(C)CC5)ccc4c3c2)c1,404,4.3
CN1CCN(C(=O)c2ccc3c(c2)[nH]c2c(C(N)=O)ccc(-c4cccc(Cl)c4)c23)CC1,38,–
COc1ccc(-c2ccc(C(N)=O)c3[nH]c4cc(C(=O)N5CCN(C)CC5)ccc4c23)cc1,55,–
CN1CCN(C(=O)c2ccc3c(c2)[nH]c2c(C(N)=O)ccc(-c4cccc(Cl)c4Cl)c23)CC1,13,–
CNC(=O)c1ccc(-c2ccc(C(N)=O)c3[nH]c4cc(C(=O)N5CCN(C)CC5)ccc4c23)cc1,44,–
COc1cccc(-c2cc(C(N)=O)c3[nH]c4ccc(C(=O)N5CCOCC5)cc4c3c2)c1,360,–
Cc1c(NC(=O)c2ccccc2)cccc1-c1ccc(C(N)=O)c2[nH]c3cc(C(=O)N4CCN(C)CC4)ccc3c12,7.2,–
Cc1c(NC(=O)c2ccc(C(C)(C)C)cc2)cccc1-c1ccc(C(N)=O)c2[nH]c3cc(C(=O)N4CCN(C)CC4)ccc3c12,12,–

SMILES,IC50 [1] [nM],IC50 [2] [nM]
NC(=O)c1cc(-c2cccc(Cl)c2)cc2c1[nH]c1ccc(C(=O)N3CCOCC3)cc12,189,1.7
COc1ccc(-c2ccc(C(N)=O)c3[nH]c4ccc(C(=O)N5CCN(C)CC5)cc4c23)cc1,29,–
CN1CCN(C(=O)c2ccc3c(c2)[nH]c2c(C(N)=O)ccc(-c4cccc(F)c4F)c23)CC1,6.9,–
CN1CCN(C(=O)c2ccc3c(c2)[nH]c2c(C(N)=O)ccc(-c4ccc(Cl)c(Cl)c4)c23)CC1,101,–
CN1CCN(C(=O)c2ccc3c(c2)[nH]c2c(C(N)=O)ccc(-c4ccc(Cl)cc4)c23)CC1,59,–
CC(=O)Nc1ccc(-c2ccc(C(N)=O)c3[nH]c4cc(C(=O)N5CCN(C)CC5)ccc4c23)cc1,15,–
COc1ccc(-c2cc(C(N)=O)c3[nH]c4ccc(C(=O)N5CCOCC5)cc4c3c2)cc1,327,2
CN1CCN(C(=O)c2ccc3c(c2)[nH]c2c(C(N)=O)ccc(-c4ccc(C(C)(C)C)cc4)c23)CC1,103,–
COc1cccc(-c2ccc(C(N)=O)c3[nH]c4ccc(C(=O)N5CCN(C)CC5)cc4c23)c1,28,–
CNC(=O)c1cccc(-c2ccc(C(N)=O)c3[nH]c4cc(C(=O)N5CCN(C)CC5)ccc4c23)c1,71,–
NC(=O)c1cc(-c2ccc(Cl)cc2)cc2c1[nH]c1ccc(C(=O)N3CCOCC3)cc12,308,2.6
CC(=O)Nc1cccc(-c2cc(C(N)=O)c3[nH]c4cc(C(=O)N5CCN(C)CC5)ccc4c3c2)c1,379,27
Cc1ccccc1-c1ccc(C(N)=O)c2[nH]c3cc(C(=O)N4CCN(C)CC4)ccc3c12,24,–
COc1ccccc1-c1ccc(C(N)=O)c2[nH]c3cc(C(=O)N4CCN(C)CC4)ccc3c12,144,–
COc1ccc(-c2cc(C(N)=O)c3[nH]c4cc(C(=O)N5CCN(C)CC5)ccc4c3c2)cc1,436,5.5
CC(=O)Nc1cccc(-c2ccc(C(N)=O)c3[nH]c4ccc(C(=O)N5CCN(C)CC5)cc4c23)c1,88,–
CN1CCN(C(=O)c2ccc3c(c2)[nH]c2c(C(N)=O)ccc(-c4cccc(NC(=O)c5ccc(F)cc5)c4)c23)CC1,39,–
Cc1c(NC(=O)c2ccc(F)cc2)cccc1-c1ccc(C(N)=O)c2[nH]c3cc(C(=O)N4CCN(C)CC4)ccc3c12,3.8,–
CN1CCN(C(=O)c2ccc3c(c2)[nH]c2c(C(N)=O)ccc(-c4ccc(F)cc4F)c23)CC1,22,–
